pIC50: −log10 of the molar value. The source made the active and inactive calls. No rule for the calls is given here.

The values that follow come from PubChem BioAssay AID849 (SRMLSC, 2007).

This experiment has as its system Saccharomyces cerevisiae lifespan shortening, growth inhibition. The experiment can be described thus: Saccharomyces cerevisiae growth inhibition potency – dose response (AID 849).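 Also: yeast growth read as optical density after two days at 30 degrees C.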

Take `CC1CCCCN1S(=O)(=O)c1coc(C(N)=O)c1` (stereo not drawn): the IC50 is > 100 µM (inactive).

For the molecule `Oc1ccc(COCc2ccccc2)c2cccnc12`, the pIC50 was 5.19.

Turning to `c1cnc2c(c1)ccc1cccnc12`, the pIC50 was 4.88. On to `COc1ccc(C(=O)NC(=S)NNC(=O)c2cnccn2)cc1OC`, for which the pIC50 was 4.69. With `Cc1c(C=O)c2ccccn2c1C(=O)c1ccncc1`, the IC50 is > 100 µM (inactive). `CCc1ccc2c(c1)C1(NN=C(c3ccccc3)S1)C(=O)N2` (stereo not drawn): the pIC50 was 4.61. With `CCCn1c(C)cc(C(=O)COC(=O)c2ccc[nH]c2=O)c1C`, the pIC50 is 4.45. Regarding `O=C1c2ccccc2NC(c2ccc(-c3cccc(Cl)c3)o2)N1O` (stereo not drawn), the pIC50 was 4.46. As to `O=C(O)CSc1nc(-c2ccc(Cl)cc2)nc2c1oc1ccccc12`, the negative logarithm of the IC50 (pIC50) was 4.42. For the molecule `O=C(c1ccc(Cl)cc1)c1c[nH]c(C(=O)C(Cl)(Cl)Cl)c1`, the pIC50 is 4.42.

For the molecule `CC(=O)n1cc(C(C[N+](=O)[O-])SCCN)c2ccccc21` (stereo not drawn), the pIC50 is 5.07. As for `COc1ccc(OC)c(-c2c3cc(O)c(=O)cc-3oc3cc(O)c(O)cc23)c1`, the pIC50 was 4.52. For `c1cn2cc(-c3ccc4c(c3)OCO4)nc2s1`, the IC50 is > 100 µM (inactive).

The term IC50 denotes the point on the concentration scale where inhibition reaches its midpoint. For orientation: pIC50 means −log10 of the IC50, conventionally taken in molar units.
